According to patent US4822775A, “Phenyl substituted dipeptide amides” (priority 1986, dated 1989):
pIC50: −log10 of the molar value. Where two headings read alike, the source gives them in different places.

Tests used:
mice = test: Writhing assay (phenylbenzoquinone-induced writhing); assay type: in vivo, mouse; details: 30 min before phenylbenzoquinone i.p.; for Writhing Mouse Oral: screening dose 10 mg/kg p.o. (intragastric); for Writhing Mouse Subc.: screening dose 10 mg/kg s.c.
Experimental: Writhing assay. Male Charles River albino mice (CD-1/HAM/1LR) weighing between 20 and 30 grams were used. Thirty minutes after subcutaneous or intragastric administration of the test compound (0.1 mg/10 gram body weight), 0.025% (w/v) phenylbenzoquinone was injected intraperitoneally (0.1 ml/10 gram body weight). Five minutes later, each mouse was placed in a large glass beaker and the number of writhes that occurred in the subsequent ten minutes is counted. A writhe consisted of dorsoflexion of the back, extension of the hindlimbs, and strong contraction of the abdominal musculature. The test compounds was considered to have produced analgesia in a mouse if the number of writhes elicited by phenylbenzoquinone was equal to or less than one-half the median number of writhes recorded for the saline-treated group that day. The results were expressed as the number of mice (out of a possible ten) in which the test compound produced analgesia.

[1] = target: opiate receptors isolated from rat brain; assay type: binding; details: for pIC50: read-out: Opiate Binding, IC50
opiate activity = details: cited from earlier work
rat = details: injected directly into the brain of the rat; cited from earlier work
[2] = 1 nM 3H-Naloxone, rat brain receptor membranes, standard screening dose 10^-5 molar (words such as Inactive refer to it)
[3] = 1 nM 3H-Naloxone, rat brain receptor membranes, standard screening dose 10^-5 molar (words such as Inactive refer to it), monohydrochloride

Compound | Writhing Mouse Oral (mice) | Writhing Mouse Subc. (mice) | further results
Cc1cc(O)cc(C)c1C[C@H](N)C(=O)N[C@H](C)C(=O)N1CCc2ccccc2C1.Cl (single isomer, unassigned) [Example 35, α-amino-4-hydroxy-2,6-dimethyl-N-[1R-methyl-2-oxo-2-(1,2,3,4-tetrahydro-2-isoquinolinyl)ethyl]benzenepropanamide, monohyrochloride] | Active | Active | pIC50 [1, 2]: 7.85
Cc1cc(O)cc(C)c1CC(NC(=O)OC(C)(C)C)C(=O)N[C@H](C)C(=O)NCCOc1ccccc1 (mixture of isomers) [Example 115, N-[(1,1-dimethylethoxy)carbonyl]O2,6-dimethyl-DL-tyrosyl-N-(2-phenoxyethyl)-D-alaninamide] | Active | Active | pIC50 [1]: 8.06
2,6-dimetyltyrosyl-N-[3-(2-thienyl)-2E-propenyl]-D-alaninamide, monohydrochloride [Example 52] | Inactive | Active | 
2,6-dimethyltyrosyl-N-(6-methoxy-6-oxohexyl)-D-alaninamide, monohydrochloride [Example 5] |  | Inactive | pIC50 [1, 3]: 5.00
2,6-dimethyltyrosyl-N-[3-(2-thienyl)propyl]-D-alaninamide, monohydrochloride [Example 46] |  |  | Writhing Mouse Oral (mice; monohydrochloride, 10 mg/kg): Inactive; Writhing Mouse Subc. (mice; monohydrochloride, 10 mg/kg): Inactive; pIC50 [1, 3]: 6.66
methionine enkephalin |  |  | activity in bioassays for opiate activity (opiate activity): highly active; analgesic activity (rat): only weak, fleeting analgesic activity
2,6-dimethyltyrosyl-N-(2,3-dihydro-1H-inden-2-yl)-D-alaninamide, monohydrochloride [Example 24] | Inactive | Lethal | pIC50 [1, 2]: 6.07
2,6-dimethyltyrosyl-N-(6-methoxy-6-oxohexyl)-D-alaninamide, monohydrochloride [Example 7] | Inactive | Inactive | pIC50 [1, 3]: 6.00
2,6-dimethyltyrosyl-N-[3-(3-thienyl)-2E-propenyl]-D-alaninamide, monohydrochloride [Example 58] | Inactive | Active | pIC50 [1, 2]: 9.00
2-(2R-amino-1-oxopropyl)-1,2,3,4-tetrahydroisoquinoline, monohydrochloride [Example 32] | Active | Inactive | Opiate Binding, IC50 [1, 2]: Inactive
2,6-dimethyltyrosyl-N-[3-(2-thienyl)propyl]-D-alaninamide, monohydrochloride [Example 47] |  |  | Writhing Mouse Oral (mice; monohydrochloride, 10 mg/kg): Active; Writhing Mouse Subc. (mice; monohydrochloride, 10 mg/kg): Active; pIC50 [1, 3]: 8.54
Cc1cc(O)cc(C)c1C[C@H](N)C(=O)N[C@@H](C)C(=O)N1CCCc2ccccc21.Cl (relative stereo) [Example 29, αS-R*-amino-4-hydroxy-2,6-dimethyl-N-[1S*-methyl-2-oxo-2-(1,2,3,4-tetrahydro-1-quinolinyl)ethyl]benzenepropanamide, monohydrochloride] | Inactive | Inactive | pIC50 [1]: 5.31
C[C@@H](N)C(=O)NC1Cc2ccccc2C1 [Example 21] | Inactive | Active | Opiate Binding, IC50 [1]: Inactive
α-amino-4-hydroxy-2,6-dimethyl-N-[1R-methyl-2-oxo-2-(1,2,3,4-tetrahydro-1-quinolinyl)ethyl]benzenepropanamide, monohydrochloride [Example 30] | Inactive | Inactive | 
Cc1cc(O)cc(C)c1C[C@H](N)C(=O)N[C@H](C)C(=O)NCCSc1ccccc1.Cl [Example 109, 2,6-dimethyltyrosyl-N-[2-(2-(phenylthio)ethyl]-D-alaninamide, monohydrochloride] |  |  | pIC50 [1]: 9.40
2,6-dimethyl-L-tyrosyl-N-[2-(2-thienyl)ethyl]-D-alaninamide, monohydrochloride [Example 39] | Inactive | Inactive | 
α-amino-4-hydroxy-2,6-dimethyl-N-[1R-methyl-2-oxo-2-(1,2,3,4-tetrahydro-2-isoquinolinyl)ethyl]benzenepropanamide, monohydrochloride [Example 37] | Inactive | Inactive | pIC50 [1, 2]: 5.85
C[C@@H](N)C(=O)NCCCc1cccs1 [Example 44, 2R-amino-N-[3-(2-thienyl)propyl]propanamide] | Active | Active | Opiate Binding, IC50 [1, 2]: Inactive
COc1ccc(CCCNC(=O)[C@@H](C)N)cc1 [Example 60, αR-amino-N-[3-(4-methoxyphenyl)propyl]propanamide] | Active | Active | pIC50 [1, 2]: 4.44
Cc1cc(O)cc(C)c1CC(NC(=O)OC(C)(C)C)C(=O)N[C@H](C)C(=O)NCCSc1ccccc1 (mixture of isomers) [Example 108, N-[(1,1-dimethylethoxy)carbonyl]-2,6-dimethyl-DL-tyrosyl-N-[2-(phenythio)ethyl]-D-alaninamide] | Inactive | Active | pIC50 [1]: 8.09
C[C@@H](NC(=O)OCc1ccccc1)C(=O)NC1Cc2ccccc2C1 [Example 20, phenylmethyl [2-[(2,3-dihydro-1H-inden-2-yl)amino]-1R-methyl-2-oxoethyl]carbamate] | Inactive | Active | Opiate Binding, IC50 [1, 2]: Inactive
Cc1cc(O)cc(C)c1C[C@H](N)C(=O)N[C@H](C)C(=O)NCCSc1ccccc1.Cl [Example 109] | Inactive | Active | 
C[C@@H](NC(=O)OCc1ccccc1)C(=O)N1CCCc2ccccc21 [Example 25, phenylmethyl [1R-methyl-2-oxo-2-(1,2,3,4-tetrahydro-1-quinolinyl)ethyl]carbamate] | Inactive | Inactive | pIC50 [1, 2]: 4.10
Cc1cc(O)cc(C)c1C[C@H](N)C(=O)N[C@H](C)C(=O)NCCC(c1ccccc1)c1ccccc1.Cl [Example 73, 2,6-dimethyltyrosyl-N-(3,3-diphenylpropyl)-D-alaninamide, monohydrochloride] | Inactive | Active | pIC50 [1, 2]: 9.52
